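Tested at 5 concentrations; 48 h exposure; 96-well plates; endpoints linearly interpolated, else capped at highest concentration. TGI: concentration producing complete growth inhibition.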
How the values were obtained:
Assay in all cases: growth of human tumour cells (NCI), 48 h
786-0 renal = tested on: 786-0 renal
ACHN renal = tested on: ACHN renal
CCRF-CEM leukemia = tested on: CCRF-CEM leukemia
COLO 205 colon = tested on: COLO 205 colon
DLD-1 colon = tested on: DLD-1 colon
DMS 114 small cell lung = tested on: DMS 114 small cell lung
EKVX NSCLC = tested on: EKVX NSCLC
HCC-2998 colon = tested on: HCC-2998 colon
HCT-116 colon = tested on: HCT-116 colon
HL-60(TB) leukemia = tested on: HL-60(TB) leukemia
HOP-18 NSCLC = tested on: HOP-18 NSCLC
HOP-62 NSCLC = tested on: HOP-62 NSCLC
HOP-92 NSCLC = tested on: HOP-92 NSCLC
HT29 colon = tested on: HT29 colon
IGROV1 ovarian = tested on: IGROV1 ovarian
K-562 leukemia = tested on: K-562 leukemia
KM12 colon = tested on: KM12 colon
KM20L2 colon = tested on: KM20L2 colon
LOX IMVI melanoma = tested on: LOX IMVI melanoma
LXFL 529 NSCLC = tested on: LXFL 529 NSCLC
M14 melanoma = tested on: M14 melanoma
M19-MEL melanoma = tested on: M19-MEL melanoma
MALME-3M melanoma = tested on: MALME-3M melanoma
MOLT-4 leukemia = tested on: MOLT-4 leukemia
NCI-H226 lung = tested on: NCI-H226 lung
NCI-H23 lung = tested on: NCI-H23 lung
NCI-H460 lung = tested on: NCI-H460 lung
NCI-H522 lung = tested on: NCI-H522 lung
OVCAR-3 ovarian = tested on: OVCAR-3 ovarian
OVCAR-4 ovarian = tested on: OVCAR-4 ovarian
OVCAR-5 ovarian = tested on: OVCAR-5 ovarian
OVCAR-8 ovarian = tested on: OVCAR-8 ovarian
RPMI-8226 leukemia = tested on: RPMI-8226 leukemia
RXF 393 renal = tested on: RXF 393 renal
RXF-631 renal = tested on: RXF-631 renal
SF-268 CNS = tested on: SF-268 CNS
SF-295 CNS = tested on: SF-295 CNS
SF-539 CNS = tested on: SF-539 CNS
SK-MEL-28 melanoma = tested on: SK-MEL-28 melanoma
SK-MEL-5 melanoma = tested on: SK-MEL-5 melanoma
SK-OV-3 ovarian = tested on: SK-OV-3 ovarian
SN12C renal = tested on: SN12C renal
SNB-19 CNS = tested on: SNB-19 CNS
SNB-75 CNS = tested on: SNB-75 CNS
SNB-78 CNS = tested on: SNB-78 CNS
SR leukemia = tested on: SR leukemia
SW-620 colon = tested on: SW-620 colon
TK-10 renal = tested on: TK-10 renal
UACC-257 melanoma = tested on: UACC-257 melanoma
UACC-62 melanoma = tested on: UACC-62 melanoma
UO-31 renal = tested on: UO-31 renal
XF 498 CNS = tested on: XF 498 CNS
A498 renal = tested on: A498 renal
A549 NSCLC = tested on: A549 NSCLC
CAKI-1 renal = tested on: CAKI-1 renal
DMS 273 small cell lung = tested on: DMS 273 small cell lung
HCT-15 colon = tested on: HCT-15 colon
SK-MEL-2 melanoma = tested on: SK-MEL-2 melanoma

## COc1ccc(-c2cc(=O)c3cc(Cl)ccc3[nH]2)cc1
786-0 renal
  TGI: > 100 µM
ACHN renal
  TGI: > 100 µM
CCRF-CEM leukemia
  TGI: > 100 µM
COLO 205 colon
  TGI: > 100 µM
DLD-1 colon
  TGI: > 100 µM
DMS 114 small cell lung
  TGI: > 100 µM
EKVX NSCLC
  TGI: > 100 µM
HCC-2998 colon
  TGI: > 100 µM
HCT-116 colon
  TGI: > 100 µM
HL-60(TB) leukemia
  TGI: > 100 µM
HOP-18 NSCLC
  TGI: > 100 µM
HOP-62 NSCLC
  TGI: > 100 µM
HOP-92 NSCLC
  TGI: > 100 µM
HT29 colon
  TGI: > 100 µM
IGROV1 ovarian
  TGI: > 100 µM
K-562 leukemia
  TGI: > 100 µM
KM12 colon
  TGI: > 100 µM
KM20L2 colon
  TGI: > 100 µM
LOX IMVI melanoma
  TGI: > 100 µM
LXFL 529 NSCLC
  TGI: > 100 µM
M14 melanoma
  TGI: > 100 µM
M19-MEL melanoma
  TGI: > 100 µM
MALME-3M melanoma
  TGI: > 100 µM
MOLT-4 leukemia
  TGI: > 100 µM
NCI-H226 lung
  TGI: > 100 µM
NCI-H23 lung
  TGI: > 100 µM
NCI-H460 lung
  TGI: > 100 µM
NCI-H522 lung
  TGI: > 100 µM
OVCAR-3 ovarian
  TGI: > 100 µM
OVCAR-4 ovarian
  TGI: > 100 µM
OVCAR-5 ovarian
  TGI: > 100 µM
OVCAR-8 ovarian
  TGI: > 100 µM
RPMI-8226 leukemia
  TGI: > 100 µM
RXF 393 renal
  TGI: > 100 µM
RXF-631 renal
  TGI: > 100 µM
SF-268 CNS
  TGI: > 100 µM
SF-295 CNS
  TGI: > 100 µM
SF-539 CNS
  TGI: > 100 µM
SK-MEL-28 melanoma
  TGI: > 100 µM
SK-MEL-5 melanoma
  TGI: > 100 µM
SK-OV-3 ovarian
  TGI: > 100 µM
SN12C renal
  TGI: > 100 µM
SNB-19 CNS
  TGI: > 100 µM
SNB-75 CNS
  TGI: > 100 µM
SNB-78 CNS
  TGI: > 100 µM
SR leukemia
  TGI: > 100 µM
SW-620 colon
  TGI: > 100 µM
TK-10 renal
  TGI: > 100 µM
UACC-257 melanoma
  TGI: > 100 µM
UACC-62 melanoma
  TGI: > 100 µM
UO-31 renal
  TGI: > 100 µM
XF 498 CNS
  TGI: > 100 µM

## COc1ccc([Se][Se]c2ccc(OC)cc2OC)c(OC)c1
786-0 renal
  TGI: 7.78 µM
A498 renal
  TGI: 53.5 µM
A549 NSCLC
  TGI: > 100 µM
ACHN renal
  TGI: 8.89 µM
CAKI-1 renal
  TGI: 18.6 µM
CCRF-CEM leukemia
  TGI: 5.29 µM
COLO 205 colon
  TGI: > 100 µM
DLD-1 colon
  TGI: 8.72 µM
DMS 114 small cell lung
  TGI: 4.82 µM
DMS 273 small cell lung
  TGI: 19.7 µM
HCC-2998 colon
  TGI: > 100 µM
HCT-116 colon
  TGI: 10.5 µM
HCT-15 colon
  TGI: 4.33 µM
HL-60(TB) leukemia
  TGI: 5.89 µM
HOP-18 NSCLC
  TGI: 4.72 µM
HOP-92 NSCLC
  TGI: 4.46 µM
HT29 colon
  TGI: > 100 µM
IGROV1 ovarian
  TGI: 15.3 µM
K-562 leukemia
  TGI: 7.94 µM
KM12 colon
  TGI: 14.6 µM
LXFL 529 NSCLC
  TGI: 4.64 µM
M14 melanoma
  TGI: 9.3 µM
M19-MEL melanoma
  TGI: 4.68 µM
MALME-3M melanoma
  TGI: 33.2 µM
MOLT-4 leukemia
  TGI: 19.2 µM
NCI-H226 lung
  TGI: 7.71 µM
NCI-H23 lung
  TGI: 15.3 µM
NCI-H460 lung
  TGI: > 100 µM
NCI-H522 lung
  TGI: 4 µM
OVCAR-3 ovarian
  TGI: 20 µM
OVCAR-4 ovarian
  TGI: 4.6 µM
OVCAR-8 ovarian
  TGI: > 100 µM
RPMI-8226 leukemia
  TGI: 6.96 µM
RXF 393 renal
  TGI: 6.27 µM
RXF-631 renal
  TGI: 59.2 µM
SF-268 CNS
  TGI: 4.97 µM
SF-295 CNS
  TGI: 4.03 µM
SF-539 CNS
  TGI: 3.16 µM
SK-MEL-2 melanoma
  TGI: 20.8 µM
SK-MEL-28 melanoma
  TGI: 4.56 µM
SK-MEL-5 melanoma
  TGI: 29.3 µM
SK-OV-3 ovarian
  TGI: 76.5 µM
SNB-19 CNS
  TGI: 21 µM
SNB-75 CNS
  TGI: 3.11 µM
SNB-78 CNS
  TGI: 7.04 µM
SW-620 colon
  TGI: 7.04 µM
TK-10 renal
  TGI: 16.3 µM
UACC-257 melanoma
  TGI: 5.85 µM
UACC-62 melanoma
  TGI: 4.14 µM
UO-31 renal
  TGI: 5.31 µM
XF 498 CNS
  TGI: 3.84 µM

Source: PubChem BioAssay (NCI)
